Experimental data as given in patent US20230219969A1 (priority 2020, published 2023).
Like-named read-outs stand apart in the source and are kept apart here.

Tests used:
Rat cortical neurons = assay: Neurite Outgrowth in Primary Neuronal Cultures Assay (Procedure B); assay type: cell-based; design: key: A: Statistically significant mean increase as a percent of DMSO control at 10 μM or less; B: No statistically significant mean increase as a percent of DMSO control at 10 μM or less; conditions: 72 h, percent of DMSO control at 10 μM or less
Source text: Neurite Outgrowth in Primary Neuronal Cultures Assay (Procedure B). Changes in the pattern of neurite outgrowth have been implicated in psychiatric and neurodegenerative disorders as well as traumatic injuries. The discovery of new compounds that can positively affect neuritogenesis are important for developing new therapeutics for neurological diseases. Measurement of neurite outgrowth of rat cortical neurons using an automated image-based assay was used to determine the neuroplastic effects of the compounds of the present invention. The neurite outgrowth assay was performed at Neurofit SAS (France) as described below.
Pregnant Wistar rats (Janvier; France) were used for the study. They were delivered 6 days before their use. Upon arrival at Neurofit animal facility, they were housed one per cage and maintained in a room with controlled temperature (21-22° C.) and a reversed light-dark cycle (12 h/12 h; lights on: 17:30-05:30; lights off: 05:30-17:30) with food and water available ad libitum.
Female Wistar rats of 17 days gestation were killed by cervical dislocation and the fetuses were removed from the uterus. Their brains were placed in ice-cold medium of Leibovitz (L15, Gibco, Fisher bioblock, France). Cortices were dissected and meninges were carefully removed. The cortical neurons were dissociated by trypsinization for 30 min at 37° C. (trypsin-EDTA, Gibco) in presence of 0.1 mg/ml DNAse I (Roche, France). The reaction was stopped by addition of Dulbecco's Modified Eagle Medium (DMEM; Gibco) with 10% of fetal bovine serum (FBS; Gibco). The suspension was triturated with a 10-ml pipette and using a needle syringe 21G and centrifuged at 350×g for 10 min at room temperature. The pellet of dissociated cells was resuspended in a medium consisting of Neurobasal (Gibco) supplemented with 2% B27 supplement (Gibco), 0.5 mM L-Glutamine (Gibco), an antibiotic-antimicotic mixture. Viable cells were counted in a Neubauer cytometer using the trypan blue exclusion test (Sigma). Cells were seeded at a density of 10000 cells per well in 96-well plate (Costar) precoated with poly-L-lysine. Test compound at different concentrations were added to the cultures. Donepezil (positive control) was tested at 250 nM.
After 72 h (3 days) of plating, cultures were fixed with paraformaldehyde in PBS (4%, Sigma) for 30 min at 4° C. Then, cells were successively permeabilized with 0.1% Triton X100 for 30 min, saturated with PBS containing 3% of BSA and were incubated 1 h with anti-beta III tubulin antibody (Sigma) at 1/10 000 in PBS containing 0.5% of BSA. Cells were washed three times with PBS containing 0.5% of BSA, and they were incubated 1 h with goat anti-mouse antibody coupled with AF488 (Invitrogen A11001) diluted at 1/1000 in PBS containing 0.5% of BSA. Finally, nuclei were staining with DAPI 1 mg/ml at 1/1000 in PBS containing 0.5% of BSA. After rinsing with PBS, the plate was filmed and neurite networks were examined and analyzed using High-Content Screening (CellInsight, Thermo Scientific). The average number of neurites per neuron and the average total length of neurites per neuron were the main parameters analyzed. Analysis of data was performed using analysis of variance (ANOVA). The Fisher's Protected Least Significant Difference test was used for multiple comparisons. A p value<0.05 was considered significant. The software used is StatView 5.0 from SAS Institut.
In some embodiments, a compound of the present invention increases the pattern of neurite outgrowth. In some embodiments, a compound of the present invention increases neurite average length compared to a control. In some embodiments, a compound of the present invention increases neurite branch points compared to a control.

5HT2A [1] = target: T1, 5HT2A (Homo sapiens, UniProt P28223); assay: Serotonin 5-HT2A in vitro cellular IPOne agonism assay; assay type: cell-based; design: host or cells: CHO-K1
Experimental: Serotonin 5-HT2A In Vitro Cellular IPOne Agonism Assay. The 5-HT2A IPOne HTRF assay was performed at Epics Therapeutics S.A. (Belgium, FAST-0505I) using conventional methods. Briefly, CHO-K1 cells expressing human recombinant 5-HT2A receptor grown to mid-log phase in culture media without antibiotics were detached with PBS-EDTA, centrifuged, and resuspended in medium without antibiotics buffer. 20,000 cells are distributed in a 96 well plate and incubated overnight at 37° C. with 5% CO2.
For agonist testing, the medium is removed and 20 μl of assay buffer plus 20 μl of test compound or reference agonist are added in each well. The plate is incubated for 60 min. at 37° C. with 5% CO2.
After addition of the lysis buffer containing IP1-d2 and anti-IP1 cryptate detection reagents, plates are incubated 1-hour at room temperature, and fluorescence ratios are measured according to the manufacturer specification, with the HTRF kit.
(§1) The compounds provided herein were tested in the Serotonin 5-HT2A and 5-HT2C in vitro radioligand binding and cellular IPOne agonism assays. The binding and agonism functional potencies of several compound provided herein compounds (as indicated by their IC50s or EC50s) are shown in Table 11.

5HT2A [2] = target: T1, 5HT2A; assay: Serotonin 5-HT2A in vitro radioligand binding competition assay ([3H]-DOI); design: purchased Epics Therapeutics S.A. (Belgium) FAST-0505B
Experimental: Serotonin 5-HT2A In Vitro Radioligand Binding Competition Assay. The 5-HT2A radioligand binding competition assay was performed at Epics Therapeutics S.A. (Belgium, FAST-0505B) using conventional methods. Briefly, competition binding is performed in duplicate in the wells of a 96 well plate (Master Block, Greiner, 786201) containing binding buffer (optimized for each receptor), membrane extracts (amount of protein/well optimized for each receptor), radiotracer [^3H]-DOI (final concentration optimized for each receptor) and test compound. Nonspecific binding is determined by co-incubation with 200-fold excess of cold competitor. The samples are incubated in a final volume of 0.1 ml at a temperature and for a duration optimized for each receptor and then filtered over filter plates. Filters are washed six times with 0.5 ml of ice-cold washing buffer (optimized for each receptor) and 50 μl of Microscint 20 (Packard) are added in each well. The plates are incubated 15 min on an orbital shaker and then counted with a TopCount™ for 1 min/well.
as §1

[3] = CHO-K1 cells, IPOne HTRF, read-out: 5-HT2A IPOne Agonism Activity
[4] = [3H]-DOI competition, membrane extracts, read-out: 5-HT2A Radioligand Binding Activity

T1 sequence (P28223 whole entry): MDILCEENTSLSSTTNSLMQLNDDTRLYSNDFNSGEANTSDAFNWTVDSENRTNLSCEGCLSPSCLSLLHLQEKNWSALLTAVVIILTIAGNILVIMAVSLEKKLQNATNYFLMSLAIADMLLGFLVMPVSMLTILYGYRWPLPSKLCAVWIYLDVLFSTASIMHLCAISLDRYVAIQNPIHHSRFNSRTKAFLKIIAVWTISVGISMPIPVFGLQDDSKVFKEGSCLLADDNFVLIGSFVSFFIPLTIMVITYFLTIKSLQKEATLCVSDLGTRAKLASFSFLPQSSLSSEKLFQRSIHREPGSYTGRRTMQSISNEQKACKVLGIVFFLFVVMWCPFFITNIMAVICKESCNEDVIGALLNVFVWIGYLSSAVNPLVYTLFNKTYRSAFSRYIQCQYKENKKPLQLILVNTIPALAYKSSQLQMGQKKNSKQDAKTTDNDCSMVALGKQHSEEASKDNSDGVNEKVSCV

Compound | Increase in Neurite Length (Rat cortical neurons) | Increase in Neurite Number (Rat cortical neurons) | EC50 (5HT2A [1]; [3]) | IC50 (5HT2A [2]; [4]) | EC50 (5HT2A [1]) | IC50 (5HT2A [2])
COc1ccc2c(ccn2CC(C)(C)N(C)C)c1 [Example 1, 1-(5-methoxy-1H-indol-1-yl)-N,N,2-trimethylpropan-2-amine] | A | A | > 10 µM | > 10 µM |  | 
COc1ccc2c(ccn2CC2(N(C)C)CC2)c1 [Example 2, 1-((5-methoxy-1H-indol-1-yl)methyl)-N,N-dimethylcyclopropan-1-amine] | B | B | > 10 µM | > 10 µM |  | 
COc1ccc2c(c1)CN(CCN(C)C)C2 [Example 10, 2-(5-methoxyisoindolin-2-yl)-N,N-dimethylethan-1-amine] |  |  | > 10 µM | 1 to 10 µM |  | 
COc1ccc2c(c1)CCN(CCN(C)C)C2 [Example 11, 2-(6-methoxy-3,4-dihydroisoguinolin-2(1H)-yl)-N,N-dimethylethan-1-amine] |  |  | > 10 µM | 0.101 to 1 µM |  | 
CN(C)C(C)(C)Cn1ccc2c(F)c(F)ccc21 [Example 12, 1-(4,5-difluoro-1H-indol-1-yl)-N,N,2-trimethylpropan-2-amine] |  |  | > 10 µM | > 10 µM |  | 
Cc1cn(CC(C)(C)N(C)C)c2ccc(F)cc12 [Example 13, 1-(5-fluoro-3-methyl-1H-indol-1-yl)-N,N,2-trimethylpropan-2-amine] |  |  | 1 to 10 µM | > 10 µM |  | 
CN(C)C(C)(C)Cn1ccc2cc(F)ccc21 [Example 14, 1-(5-fluoro-1H-indol-1-yl)-N,N,2-trimethylpropan-2-amine] |  |  | > 10 µM | > 10 µM |  | 
COc1ccc2c(ccn2CC(C)(C)N(C)C)c1F [Example 15, 1-(4-fluoro-5-methoxy-1H-indol-1-yl)-N,N,2-trimethylpropan-2-amine] |  |  | > 10 µM | > 10 µM |  | 
COc1cc2ccn(CC(C)(C)N(C)C)c2cc1F [Example 16, 1-(6-fluoro-5-methoxy-1H-indol-1-yl)-N,N,2-trimethylpropan-2-amine] |  |  | > 10 µM | > 10 µM |  | 
COc1cc(F)c2c(ccn2CC(C)(C)N(C)C)c1 [Example 17, 1-(7-fluoro-5-methoxy-1H-indol-1-yl)-N,N,2-trimethylpropan-2-amine] |  |  | > 10 µM | > 10 µM |  | 
CN(C)C(C)(C)Cn1ccc2c(F)cccc21 [Example 18, 1-(4-fluoro-1H-indol-1-yl)-N,N,2-trimethylpropan-2-amine] |  |  | > 10 µM | > 10 µM |  | 
CN(C)C(C)(C)Cn1ccc2ccc(F)cc21 [Example 19, 1-(6-fluoro-1H-indol-1-yl)-N,N,2-trimethylpropan-2-amine] |  |  | > 10 µM | > 10 µM |  | 
CN(C)C(C)(C)Cn1ccc2cccc(F)c21 [Example 20, 1-(7-fluoro-1H-indol-1-yl)-N,N,2-trimethylpropan-2-amine] |  |  | > 10 µM | > 10 µM |  | 
COc1ccc2c(ccn2CC(C)(C)N(C)C)n1 [Example 21, 1-(5-methoxy-1H-pyrrolo[3,2-b]pyridin-1-yl)-N,N,2-trimethylpropan-2-amine] |  |  | > 10 µM | > 10 µM |  | 
COc1cc2ccn(CC(C)(C)N(C)C)c2cn1 [Example 22, 1-(5-methoxy-1H-pyrrolo[2,3-c]pyridin-1-yl)-N,N,2-trimethylpropan-2-amine] |  |  | > 10 µM | > 10 µM |  | 
COc1ncc2c(ccn2CC(C)(C)N(C)C)n1 [Example 23, 1-(2-methoxy-5H-pyrrolo[3,2-d]pyrimidin-5-yl)-N,N,2-trimethylpropan-2-amine] |  |  | > 10 µM | > 10 µM |  | 
C[C@@H](N)Cn1ccc2cncnc21 [Example 26, (R)-1-(7H-pyrrolo[2,3-d]pyrimidin-7-yl)propan-2-amine] |  |  | 1 to 10 µM | > 10 µM |  | 
COc1cnc2c(ccn2C[C@@H](C)N)c1 [Example 34, (R)-1-(5-methoxy-1H-pyrrolo[2,3-b]pyridin-1-yl)propan-2-amine] |  |  | 1 to 10 µM | > 10 µM |  | 
CN[C@H](C)Cn1ccc2cc(OC)cnc21 [Example 35, (R)-1-(5-methoxy-1H-pyrrolo[2,3-b]pyridin-1-yl)-N-methylpropan-2-amine] |  |  | > 10 µM | > 10 µM |  | 
C[C@@H](N)Cn1ccc2cnccc21 [Example 37, (R)-1-(1H-pyrrolo[3,2-c]pyridin-1-yl)propan-2-amine] |  |  | > 10 µM | > 10 µM |  | 
CN[C@H](C)Cn1ccc2cnccc21 [Example 38, (R)—N-methyl-1-(1H-pyrrolo[3,2-c]pyridin-1-yl)propan-2-amine] |  |  | > 10 µM | > 10 µM |  | 
Cc1cn(CC(C)(C)N)c2ccc(F)cc12 [Example 40, 1-(5-fluoro-3-methyl-1H-indol-1-yl)-2-methylpropan-2-amine] |  |  | 1 to 10 µM | 1 to 10 µM |  | 
CC(C)(N)Cn1ccc2c(F)c(F)ccc21 [Example 41, 1-(4,5-difluoro-1H-indol-1-yl)-2-methylpropan-2-amine] |  |  | 1 to 10 µM | 1 to 10 µM |  | 
COc1ccc2c(ccn2CC(C)(C)N)c1 [Example 42, 1-(5-methoxy-1H-indol-1-yl)-2-methylpropan-2-amine] |  |  | 1 to 10 µM | > 10 µM |  | 
CN(C)CC(=O)n1ccc2cc(F)ccc21 [Example 43, 2-(dimethylamino)-1-(5-fluoro-1H-indol-1-yl)ethan-1-one] |  |  | > 10 µM | > 10 µM |  | 
CN(C)CC(=O)n1ccc2ccccc21 [Example 44, 2-(dimethylamino)-1-(1H-indol-1-yl)ethan-1-one] |  |  | > 10 µM | > 10 µM |  | 
C[C@H](C(=O)n1ccc2ccccc21)N(C)C [Example 46, (R)-2-(dimethylamino)-1-(1H-indol-1-yl)propan-1-one] |  |  |  |  | > 10 µM | > 10 µM
C[C@H](C(=O)n1ccc2cc(F)ccc21)N(C)C [Example 48, (R)-2-(dimethylamino)-1-(5-fluoro-1H-indol-1-yl)propan-1-one] |  |  |  |  | > 10 µM | > 10 µM
